This passage reports EC50 results from patent US9249148B2, “Tris(hetero)arylpyrazoles and use thereof” (AICURIS GMBH & CO. KG, priority 2012, dated 2016).

Format in all cases: cell-based
The test system of test [1] is HIV-1NL4-3 K103N-Y181C. Briefly: Luminescence Reduction Assay, luciferase reporter virus with resistance mutations in MT4 cells. The settings on record: Human immunodeficiency virus 1, MT4, read-out: EC50 (μM) MT4 cells HIV-1NL4-3 K103N-Y181C 2% FBS. From the text: (§1) For this assay, HIV-1NL4-3 reporter viruses are used which carry the luciferase164 gene (lu164) in place of the nef gene. The viruses are generated by transfection of 293T cells with the corresponding proviral pNL4-3 plasmid (Lipofectamine Reagent, Invitrogen, Karlsruhe, Germany). Starting from the proviral plasmid DNA, viruses with defined resistance mutations (single or combined) are produced in the reverse transcriptase gene using the “QuikChange II XL Site-Directed Mutagenesis Kit” (Stratagene, Cedar Creek, Tex., USA). Resistance mutations include, among others: L74V, A98G, A98S, L100I, K101E, K103N, V106A, V106I, V106M, V108I, V108A, E138K, V179I, V179D, V179E, Y181C, Y181I, Y188L, G190A, G1905, H221Y, P225H, F227C, F227L, F227V, M230I, M230L, L234I, P236L, N348I, T369A, T369I, T369V. MT4 cells infected with these reporter viruses (NIH AIDS Research and Reference Reagent Program) secrete luciferase into the medium, which enables the luminometric quantification of the virus replication.
(§2) For starting a 96-well MTP, 3 million MT4 cells are pelleted, suspended in 1 ml RPMI 1640 medium without phenol red (Invitrogen, Karlsruhe, Germany)/10% FBS/2 mM L-glutamine/1% Pen/Strep (Invitrogen, Karlsruhe, Germany), and incubated for 2 hours at 37° C. with a suitable quantity of the relevant HIV-1NL4-3 reporter virus (pellet infection). Non-adsorbed viruses are then washed out, and the infected cells are pelleted again and suspended in 8 ml RPMI 1640 medium without phenol red/2% or 10% FBS/2 mM L-glutamine/1% Pen/Strep. From this, 90 μl per well is pipetted into a white 96-well MTP to 10 μl of test substance at a suitable level of dilution. In order to avoid edge effects, the edge wells of the MTP are not used for substance dilutions. The second vertical row of the MTP contains only infected cells (virus control) and the eleventh vertical row only non-infected cells (cell control), each in RPMI 1640 medium without phenol red/2% or 10% FBS/2 mM L-glutamine/1% Pen/Strep. The remaining wells of the MTP contain the compounds in accordance with the invention in various concentrations, starting from the third vertical row, from which the test substances are diluted in 3-step sequences up to the tenth vertical row by a factor of 3^7. The test substances are dissolved in DMSO; the final DMSO concentration in the test formulation is 1%.

For test [2], the system named is HIV-1LAI wildtype. Briefly: alamarBlue Viability Assay with HIV-1LAI-infected MT4 cells. The settings on record: Human immunodeficiency virus 1, 10% FBS. As to the method: For starting a 96-well MTP, 3 million PBLs are pelleted, suspended in 1 ml RPMI 1640 medium/10% FBS/2 mM L-glutamine/1% Pen/Strep and incubated for 2 hours at 37° C. with a suitable quantity of the relevant HIV-1LAI (NIH AIDS Research & Reference Reagent Program, Germantown, USA) (pellet infection). Non-adsorbed viruses are then washed out, and the infected cells pelleted again and suspended in 18 ml RPMI 1640 medium/10% FBS/2 mM L-glutamine/1% Pen/Strep/Interleukin-2 (40 U/ml). From this, 180 μl per well is pipetted into a 96-well MTP to 20 μl of test substance at a suitable level of dilution. Alternatively, the HIV is added after preparation of the substance dilutes in the MTP together with the cells, and is not washed out (supernatant infection). In order to avoid edge effects, the edge wells of the MTP are not used for substance dilutions. The second vertical row of the MTP contains only infected cells (virus control) and the eleventh vertical row only non-infected cells (cell control), each in RPMI 1640 medium/10% FBS/2 mM L-glutamine/1% Pen/Strep/Interleukin-2 (40 U/ml). The remaining wells of the MTP contain the compounds in accordance with the invention in various concentrations, starting from the third vertical row, from which the test substances are diluted in 3-step sequences up to the tenth vertical row by a factor of 3^7. The test substances are dissolved in DMSO; the final DMSO concentration in the test preparation is 1%. The test samples are incubated for 5 days at 37° C./5% CO2. After 5 to 7 days, 50 μl of cell-free supernatant is removed from each well to determine its p24 content using p24 ELISA (HIV-1 p24CA Antigen Capture Assay Kit, NCI-Frederick Cancer Research and Development Center, Frederick, USA). From the resulting values of the photometric analysis (450/620 nm), the EC50 values of the test substances are determined from the resulting dose-response curves using the Prism4 software (GraphPad, San Diego, Calif.) as the concentration of treated infected cells, where the p24 quantity is 50% of the untreated infected cells.
Alternatively, MT4 cells are used in place of PBLs for testing the test substances. HIV-1LAI-infected MT4 cells (MOI 0.01, supernatant infection) are incubated in accordance with the procedure described above in RPMI 1640 medium using 2% or 10% FKS/2 mM L-glutamine/1% Pen/Strep in the presence of the test substances for 5 days at 37° C./5% CO2 (10 μl diluted substance and 90 μl cells/virus per well). 10 μl alamarBlue (Invitrogen, Karlsruhe, Germany) is then added per well and the MTPs are incubated for 3 hours at 37° C. before fluorimetric evaluation is performed (544/590 nm). Using quattroWorkflow software (Quattroresearch, Martinsried, Germany), the EC50 values of the test substances are determined from the resulting dose-response curves as the concentration of treated infected cells in which the fluorescence is 50% of that of the untreated, non-infected cells.

For test [3], the system named is HIV-1NL4-3 wildtype. Briefly: Luminescence Reduction Assay, luciferase reporter virus in MT4 cells. Conditions: Human immunodeficiency virus 1, MT4, read-out: EC50 (μM) MT4 cells HIV-1NL4-3 wildtype 2% FBS.
From the text: as §1, §2

`O=C1NCc2c1ccnc2-c1cc(-c2cc(F)cc(Cl)c2)n(-c2ccc(F)c(Cl)c2)n1` [Example 1, 4-[1-(3-chloro-4-fluorophenyl)-5-(3-chloro-5-fluorophenyl)-1H-pyrazole-3-yl]-2,3-dihydro-1H-pyrrolo[3,4-c]pyridine-1-one]: the figures for the concentration for a half-maximal effect (EC50) in test [1], in test [2] and in test [3] were 0.004 µM, 0.0097 µM and 0.0015 µM, respectively.
The matching figures for `O=c1[nH][nH]c2c(-c3cc(-c4cc(F)cc(Cl)c4)n(-c4ccc(F)c(Cl)c4)n3)cccc12` [Example 29]: 1.22 µM, 2.06 µM and 0.39 µM.
For the compound `Cc1nc2c(c(-c3cc(-c4cc(Cl)cc(OC(F)(F)F)c4)n(-c4cccnc4)n3)n1)CNC2=O` [Example 46], the values for the concentration giving a half-maximal response (EC50) in test [1], in test [2] and in test [3] were 0.0004 µM, 0.0023 µM and 0.0004 µM, respectively.
For the compound `Cc1cc(F)cc(-c2cc(-c3nccc4c3CNC4=O)nn2-c2ccc(F)c(Cl)c2)c1` [Example 22], the results for the concentration for a half-maximal effect (EC50) in test [1], in test [2] and in test [3] were 0.0077 µM, 0.0245 µM and 0.0009 µM, respectively.
Take `O=C1NCc2c1ccnc2-c1cc(-c2cc(F)cc(OC(F)(F)F)c2)n(-c2ccc(F)c(Cl)c2)n1` [Example 5, 4-{1-(3-chloro-4-fluorophenyl)-5-[3-fluoro-5-(trifluoromethoxy)phenyl]-1H-pyrazole-3-yl}-2,3-dihydro-1H-pyrrolo[3,4-c]pyridine-1-one]: the EC50 in test [1] amounted to 0.0117 µM; in test [2], 0.15 µM; in test [3], 0.011 µM.
`O=C1NCc2c1ccnc2-c1cc(-c2cc(Cl)cc(OC(F)F)c2)n(-c2ccnc(Cl)c2)n1` [Example 17, 4-{5-[3-chloro-5-(difluoromethoxy)phenyl]-1-(2-chloropyridine-4-yl)-1H-pyrazole-3-yl}-2,3-dihydro-1H-pyrrolo[3,4-c]pyridine-1-one]: the concentration giving a half-maximal response (EC50) in test [1] came to 0.0049 µM; in test [2], 0.0086 µM; in test [3], 0.0011 µM.
